Tested on: patients with psoriatic arthritis
Assay: Phase 2 trial in psoriatic arthritis: PASI75 response at week 16
Type: in vivo, human
Settings: for Odds Ratio for PASI75 response / Odds Ratio (OR) for PASI75 response / Interaction Term for PASI75 response (ratio of odds ratios): week 16
Description: In a double-blind Phase 2 trial, 203 patients with psoriatic arthritis were randomized into three groups: deucravacitinib 6 mg once daily (N=70), deucravacitinib 12 mg once daily (N=67), or placebo (N=66). All subjects had active psoriatic arthritis according to the Classification Criteria for Psoriatic Arthritis (CASPAR); for active disease, these criteria required ≥3 tender joint count, ≥3 swollen joint count, and a C-reactive protein level above 3 mg/L. Other inclusion criteria included the following: presence of at least one plaque psoriasis lesion, and prior treatment failure with a non-biologic disease modifying anti-rheumatic drug, a non-steroidal anti-inflammatory drug, or a steroid. With respect to treatment history, approximately 70% of subjects had not received prior treatment with a biologic and were biologic naïve, while up to 30% of subjects had failed or had been intolerant to one TNF-inhibitor (TNF=Tumor necrosis factor, also known as TNFα). Randomization was stratified by prior TNF-inhibitor use (experienced/naïve) and body weight (<90 kg and ≥90 kg).
Clinical measures included the Psoriasis […] (PASI) score for skin psoriasis, American College of Rheumatology 20 (ACR20) response, Psoriatic Arthritis Disease Activity Score (PASDAS), Health Assessment Questionnaire-Disability Index (HAQ-DI), and Disease Activity Score 28 CRP (DAS28). To evaluate the predictive value of different protein measurements for the clinical response to deucravacitinib, baseline protein concentrations for responders and non-responders, as defined by ACR20 or PASI75 at week 16, were compared for each arm (placebo, 6 mg deucravacitinib once-daily, and 12 mg deucravacitinib once-daily).
In addition, a logistic regression model was fit, to determine whether baseline disease score (dichotomized by the median baseline score, into baseline score high and baseline score low groups) was associated with response status. The model generated an odds ratio for each dosed arm versus placebo, in baseline score high and baseline score low groups.
Boxplots for baseline protein level by response were generated with a horizontal line indicating the median protein level at baseline. For each treatment arm, a two-sample t-test was performed to test whether mean baseline serum protein level was different in responders versus non-responders. A Wilcoxon rank sum test (Mann-Whitney U test) was also performed to evaluate the difference in median serum protein level between responders and non-responders. Further, barplots of ACR20 and PASI75 response rate at week 16 for each treatment arm were generated for all subjects (protein level high and protein level low subjects, dichotomized according to median baseline level). Line plots of ACR20 and PASI75 response rate over time for each treatment arm were generated for protein level high and protein level low groups. Logistic regression models were also fit to evaluate associations between baseline protein levels and clinical outcome.
For certain analyses described herein, patients were dichotomized by median values (e.g., of the proteins listed above or other measures) into “high” and “low” groups, such that the high group had values above the median and the low group had values less than or equal to the median.
In addition, logistic regression models were fit for response measures ACR20 and PASI75, to generate the odds ratio of each of the deucravacitinib treatment arms versus placebo, in BD2-high and BD2-low groups. The following logistic regression models were used: • For ACR20 response status: ACR20 (Y/N)=treatment arm+BD2 group+treatment arm*BD2 group+TNF-inhibitor use+baseline weight (continuous). • For PASI75 response status: PASI75 (Y/N)=treatment arm+BD2 group+treatment arm*BD2 group+TNF-inhibitor use+baseline weight (continuous). […]

Compound: [2H]C([2H])([2H])NC(=O)c1nnc(NC(=O)C2CC2)cc1Nc1cccc(-c2ncn(C)n2)c1OC [deucravacitinib, 6-(cyclopropanecarboxamido)-4-((2-methoxy-3-(1-methyl-1H-1,2,4-triazol-3-yl)phenyl)amino)-N-(methyl-d3)pyridazine-3-carboxamide]
- Odds Ratio, PASI75 response status (CRP-high-PASI-high, 12 mg QD vs placebo): 17.226
- Odds Ratio, PASI75 response status (CRP-high-PASI-low, 6 mg QD vs placebo): 0.710
- Odds Ratio, PASI75 response status (CRP-high-PASI-low, 12 mg QD vs placebo): 5.115
- Odds Ratio, PASI75 response status (CRP-high, 6 mg QD vs placebo, adjusted for baseline PASI score): 3.82
- Odds Ratio, PASI75 response status (CRP-high, 12 mg QD vs placebo, adjusted for baseline PASI score): 12.05
- Odds Ratio, PASI75 response status (CRP-low-PASI-high, 6 mg QD vs placebo): 2.470
- Odds Ratio, PASI75 response status (CRP-low-PASI-high, 12 mg QD vs placebo): 16.368
- Odds Ratio, PASI75 response status (CRP-low-PASI-low, 6 mg QD vs placebo): 1.866
- Odds Ratio, PASI75 response status (CRP-low-PASI-low, 12 mg QD vs placebo): 1.197
- Odds Ratio, PASI75 response status (CRP-low, 6 mg QD vs placebo, adjusted for baseline PASI score): 2.29
- Odds Ratio, PASI75 response status (CRP-low, 12 mg QD vs placebo, adjusted for baseline PASI score): 3.79
- Odds Ratio for PASI75 response (IL-17A high (baseline above median 0.575 ng/L), 6 mg QD vs placebo): 12.643
- Odds Ratio for PASI75 response (IL-17A high (baseline above median 0.575 ng/L), 12 mg QD vs placebo): 20.916
- PASI75 response rate at week 16 (IL-17A high group, 6 mg QD and 12 mg QD vs placebo (FIG. 21)): higher in both 6 mg QD and 12 mg QD treatment arms compared to placebo
- Odds Ratio, PASI75 response status (IL-17A high-PASI high, 6 mg QD vs placebo): 12.355
- Odds Ratio, PASI75 response status (IL-17A high-PASI high, 12 mg QD vs placebo): 15.937
- Odds Ratio, PASI75 response status (IL-17A high-PASI low, 6 mg QD vs placebo): 13.247
- Odds Ratio, PASI75 response status (IL-17A high-PASI low, 12 mg QD vs placebo): 30.955
- Odds Ratio, PASI75 response status (IL-17A high, 6 mg QD vs placebo, adjusted for baseline PASI score): 13.452
- Odds Ratio, PASI75 response status (IL-17A high, 12 mg QD vs placebo, adjusted for baseline PASI score): 23.963
- Odds Ratio for PASI75 response (IL-17A high, treatment arms combined vs placebo): 15.763
- Odds Ratio, PASI75 response status (IL-17A low-PASI high, 6 mg QD vs placebo): 3.005
- Odds Ratio, PASI75 response status (IL-17A low-PASI high, 12 mg QD vs placebo): 20.919
- Odds Ratio, PASI75 response status (IL-17A low-PASI low, 6 mg QD vs placebo): 0.188
- Odds Ratio, PASI75 response status (IL-17A low-PASI low, 12 mg QD vs placebo): 0.415
- Odds Ratio, PASI75 response status (IL-17A low, 6 mg QD vs placebo, adjusted for baseline PASI score): 0.588
- Odds Ratio for PASI75 response (IL-17A low, 6 mg QD vs placebo): 0.553
- Odds Ratio, PASI75 response status (IL-17A low, 12 mg QD vs placebo, adjusted for baseline PASI score): 1.812
- Odds Ratio for PASI75 response (IL-17A low, 12 mg QD vs placebo): 1.730
- Odds Ratio for PASI75 response (IL-17A low, treatment arms combined vs placebo): 1.014
- PASI75 response rate at week 16 (IL-19-high group, 6 mg QD and 12 mg QD vs placebo arm (FIG. 14)): higher in both 6 mg QD and 12 mg QD treatment arms compared to the response rate in the placebo arm
- Odds Ratio (OR) for PASI75 response (IL-19-low-PASI high, 6 mg QD vs placebo): 1.244
- Odds Ratio (OR) for PASI75 response (IL-19-low-PASI high, 12 mg QD vs placebo): 2.845
- Odds Ratio (OR) for PASI75 response (IL-19-low-PASI low, 6 mg QD vs placebo): 0.321
- Odds Ratio (OR) for PASI75 response (IL-19-low-PASI low, 12 mg QD vs placebo): 0.380
- Odds Ratio (OR) for PASI75 response (IL-19 low, 6 mg QD vs placebo): 0.443
- Odds Ratio (OR) for PASI75 response (IL-19 low, 12 mg QD vs placebo): 0.842
- Odds Ratio for PASI75 response (IL-19 low, treatment arms combined vs placebo): 6.284
- Interaction Term for PASI75 response (ratio of odds ratios) (adjusted for baseline PASI score, 6 mg QD vs placebo: BD2-high versus BD2-low): 13.742
- Interaction Term for PASI75 response (ratio of odds ratios) (adjusted for baseline PASI score, 12 mg QD vs placebo: BD2-high versus BD2-low): 19.455
- Odds Ratio for PASI75 response (adjusted for baseline PASI score, All patients, 6 mg QD vs placebo): 3.052
- Odds Ratio for PASI75 response (adjusted for baseline PASI score, All patients, 12 mg QD vs placebo): 6.494
- Odds Ratio for PASI75 response (adjusted for baseline PASI score, BD2-high, 6 mg QD vs placebo): 13.559
- Odds Ratio for PASI75 response (adjusted for baseline PASI score, BD2-high, 12 mg QD vs placebo): 34.074
- Odds Ratio for PASI75 response (adjusted for baseline PASI score, BD2-low, 6 mg QD vs placebo): 0.987
- Odds Ratio for PASI75 response (adjusted for baseline PASI score, BD2-low, 12 mg QD vs placebo): 1.751
- Odds Ratio (OR) for PASI75 response (adjusted for baseline PASI score, IL-19 low, 6 mg QD vs placebo): 0.476
- Odds Ratio (OR) for PASI75 response (adjusted for baseline PASI score, IL-19 low, 12 mg QD vs placebo): 0.896
- PASI75 response rate at week 16 (both CRP-high and CRP-low groups, 6 mg, 12 mg, placebo arms (FIG. 38)): the response rate was higher in the 6 mg deucravacitinib treatment arm than in the placebo arm, and the response rate was even higher in the 12 mg deucravacitinib treatment arm than in the 6 mg treatment arm
- Interaction Term for PASI75 response (ratio of odds ratios) (treatment arms combined vs placebo: BD2 high versus BD2 low): 12.100
- Interaction Term: treatment arm*CRP group, PASI75 (treatment arms combined vs placebo: CRP high versus CRP low): 1.903
- Interaction Term for PASI75 response (ratio of odds ratios) (treatment arms combined vs placebo: IL-17A high versus IL-17A low): 15.541

Reference: patent US20240390369A1, “METHODS FOR DETERMINING RESPONSIVENESS TO TYK2 INHIBITORS” (Bristol-Myers Squibb Company, priority 2021, published 2024)
